What was measured:
HCMV (Davis) = assay: Anti-HCMV (Davis) activity: inhibition of the cytopathogenic effect in HELF cell cultures, 96-well screening test; assay type: cell-based, human cytomegalovirus
Method: (§1) The anti-HCMV effect was determined in a screening test system in 96-well microtitre plates with the aid of human embryonic lung fibroblast (HELF) cell cultures. The influence of the substances on the spread of the cytopathogenic effect was compared with that of the reference substance ganciclovir ([…]® sodium), a clinically approved anti-HCMV chemotherapeutic agent. The substances, dissolved (50 mM) in DMSO (dimethyl sulphoxide), are investigated on microtitre plates (96-well) at final concentrations of 1000-0.00048 μM (micromolar) in double determinations (4 substances/plate). In this test, both the toxic and cytostatic effects of the substances are recorded. […] After staining with neutral red and fixing with formalin/methanol, the plates are evaluated using a projection microscope (plaque viewer).

[1] = test system: human embryonic lung fibroblast (HELF) cell cultures; assay: Anti-cellular (toxic and cytostatic) effect on HELF cells in the same screening test; assay type: cell-based; details: 6 days at 37° C.
Method: as §1

Nc1nc(O)c2ncn(COC(CO)CO)c2n1 [Cymevene^R Na, ganciclovir]
SI (selectivity index) (HCMV (Davis); HELF versus HCMV, definition given only as a drawing): 32-64
IC50 (HCMV (Davis); Human betaherpesvirus 5, 144 h, read-out: IC50 (μM) (HCMV) = concentration which elicits 50% inhibition of the CPE, HCMV (Davis)-infected HELF cells, 6 days, neutral red staining): 2 to 4 µM
CIC50 (μM) (HELF) = highest concentration at which no obvious anticellular effect is evident [1]: 125 µM

— patent publication US5633231A, “Valine-containing pseudopeptides with antiviral activity” (Bayer Aktiengesellschaft, priority 1993, dated 1997)
